Results on three compounds are retold here after paper PMC2806525, “Proteinase-activated receptor-2 mediated inhibition of TNFα-stimulated JNK activation — A novel paradigm for Gq/11 linked GPCRs” (Cellular Signalling, 2010).

Entries after “also recorded” stand apart in the source; their conditions may differ.

The target of assay [1] is T1, human PAR2 (Homo sapiens, UniProt P55085).
T1 construct: expressed in transfected cells
T1 sequence (P55085 26-397): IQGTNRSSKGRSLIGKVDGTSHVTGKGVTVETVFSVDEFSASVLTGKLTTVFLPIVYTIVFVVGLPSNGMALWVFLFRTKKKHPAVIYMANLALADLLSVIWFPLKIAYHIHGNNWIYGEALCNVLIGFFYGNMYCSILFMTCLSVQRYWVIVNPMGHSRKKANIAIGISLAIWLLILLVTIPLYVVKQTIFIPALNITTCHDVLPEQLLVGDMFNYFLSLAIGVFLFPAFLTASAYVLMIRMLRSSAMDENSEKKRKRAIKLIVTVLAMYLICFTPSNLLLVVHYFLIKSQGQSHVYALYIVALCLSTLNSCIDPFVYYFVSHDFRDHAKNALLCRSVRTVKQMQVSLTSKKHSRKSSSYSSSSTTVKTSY
As to the kind of experiment: JNK activity, agent alone, PAR2 NCTC2544 cells (clone G). The note with it: higher concentrations, alone; not shown. The class given is cell-based. How it is done: (§1) Human skin epithelial cells NCTC2544 were maintained in M199 medium with Earl's salt supplement, 10% (v/v) foetal calf serum, L-glutamine (27 µg/ml), penicillin (250 U/ml), and streptomycin (25 mg/ml). NCTC2544 cells stably expressing human PAR2 (clone G) were maintained in complete M199 medium containing 400 μg/ml of Geneticin for selection pressure and passaged using Versene (2% EDTA/PBS). EAhy-926 cells were produced by hybridizing human umbilical vein endothelial cells (HUVECs) with the epithelial cell line A549 [27] and maintained in Dulbecco's Modified Eagle's Medium (DMEM) supplemented with 10% foetal calf serum (FCS), hypoxanthine/aminopterin/thymidine (HAT supplement), penicillin (250 U/ml) and streptomycin (25 mg/ml), and cells were passaged using Versene.
To measure JNK activity, cells were stimulated as appropriate and the reaction terminated by rapid aspiration and the addition of ice-cold PBS. The cells were solubilised in 20 mM HEPES buffer, pH 7.7, containing 50 mM NaCl, 0.1 mM EDTA, 0.1 mM Na3VO4, 0.1 mM PMSF, 10 mg/ml aprotinin, 10 mg/ml leupeptin, and 1% (w/v) Triton X-100. Lysates were clarified by centrifugation for 5 min at 13,000 rpm and equal amounts of protein were incubated with 20 μg of GST-c-Jun-(5–89) immobilized on glutathione-Sepharose at 4 °C for 3 h. […] Phosphorylation of GST-c-Jun was then determined by autoradiography. […]
Fig. 4 Concentration response effects of PAR2 peptides for activation of JNK and inhibition of TNFα-stimulated JNK. PAR2 expressing NCTC2544 cells (clone G) were incubated with increasing concentrations of SLIGKV-OH or 2f-LIGKV-OH for 30 min and assayed for JNK activity (Panel B) or stimulated for a further 30 min with TNFα (+) before JNK activity was assessed (Panel A). Samples were assessed for JNK activity as outlined in the Methods section. Gels from JNK assays were quantified (Panel C). Each value represents the mean ± s.e.m from at least 4 experiments and data was quantified by densitometry.

Assay [2] deals with T1, human PAR2. Kind of assay: Reversal by PAR2 antagonist of SLIGKV-OH-mediated inhibition of TNFα-stimulated JNK, PAR2 NCTC2544 cells. It is filed as cell-based. The note with it: 10 μM K14585 30 min, SLIGKV-OH 100 μM 30 min, then TNFα. As for the experimental part: as §1
(§2) To measure JNK activity, cells were stimulated as appropriate and the reaction terminated by rapid aspiration and the addition of ice-cold PBS. The cells were solubilised in 20 mM HEPES buffer, pH 7.7, containing 50 mM NaCl, 0.1 mM EDTA, 0.1 mM Na3VO4, 0.1 mM PMSF, 10 mg/ml aprotinin, 10 mg/ml leupeptin, and 1% (w/v) Triton X-100. Lysates were clarified by centrifugation for 5 min at 13,000 rpm and equal amounts of protein were incubated with 20 μg of GST-c-Jun-(5–89) immobilized on glutathione-Sepharose at 4 °C for 3 h. Beads were then washed three times in solubilisation buffer and twice in 25 mM HEPES buffer, pH 7.6, containing 20 mM β-glycerophosphate, 0.1 mM NaV3O4, and 2 mM dithiothreitol. Precipitates were then incubated with the same buffer containing 25 μM/0.5 μCi of ATP/[γ-^32P] ATP in a final volume of 30 µl at 30 °C for 30 min. The reactions were terminated by the addition of 4× SDS-sample buffer and aliquots of each sample subjected to electrophoresis on 11% SDS-polyacrylamide gel electrophoresis. Phosphorylation of GST-c-Jun was then determined by autoradiography.
Fig. 3 Inhibition of TNFα-stimulated JNK activity is dependent upon PAR2 activation. […] Samples were assessed for JNK activity or phospho-JNK content as outlined in the Methods section. […]

Another assay deals with p38 MAP kinase. The conditions noted are these: higher concentrations, ref [37]; cited from earlier work. The text has this: Whilst this present study focuses on two agonist effects it is the first study to raise this potential when examining JNK activation. This model was also supported when examining the effect of the novel PAR2 antagonist K-14585 [33]. […] Taken together, these findings indicate two distinct agonist-directed signalling pathways driven by SLIGKV-OH, one dependent upon ...

The subject of assay [3] is PKC. Kind of assay: TNFα-stimulated JNK activity, PKC activator / PKC inhibitor, PAR2 NCTC2544 cells. It is filed as cell-based, human. The note with it: 100 nM PMA 30 min, TNFα 10 ng/ml 30 min. How it is done: as §1, §2
Where experimental data is shown as a blot, this represents one of at least 3 experiments and data represents the mean ± s.e.m. Statistical analysis was by one-way ANOVA with Dunnett's post test (*P < 0.05, **P < 0.01).
Fig. 5 Pharmacological blockade of protein kinase C reverses PAR2 mediated inhibition of TNFα-stimulated JNK activation. PAR2 expressing NCTC2544 cells (clone G) were pre-incubated with increasing concentrations of GF109203X (GFX) for 30 min then incubated for a further 30 min with 100 nM PMA (Panel A) or 30 nM trypsin (Panel B) prior to stimulation for a further 30 min with TNFα(+) (10 ng/ml). Samples were assessed for JNK activity (Panels A and B) or phospho-JNK levels (Panel D) as outlined in the Methods section. Gels from JNK activity assays were quantified by densitometry (Panel C). Each value represents the mean ± s.e.m from at least 4 experiments. ⁎⁎P < 0.01 compared to TNFα and trypsin stimulated.

Assay [4] has as its system PKC. As to the kind of experiment: TNFα-stimulated JNK phosphorylation, PKC activator / PKC inhibitor, PAR2 NCTC2544 cells. The class given is cell-based, human. The note with it: 100 nM PMA. How it is done:
as §1
Proteins were separated by 10% SDS–PAGE and transferred onto nitrocellulose. The membranes were blocked for non-specific binding for 2 h in 2% BSA (w/v) diluted in NATT buffer (50 mM Tris–HCl, 150 mM NaCl, 0.2% (v/v) Tween-20). […]
Fig. 5 Pharmacological blockade of protein kinase C reverses PAR2 mediated inhibition of TNFα-stimulated JNK activation. […] Samples were assessed for JNK activity (Panels A and B) or phospho-JNK levels (Panel D) as outlined in the Methods section. Gels from JNK activity assays were quantified by densitometry (Panel C). […]

A further assay concerns TNFR1. The note with it: ref [42,50]; cited from earlier work. The text has this: Upon activation TNFR1 associates with a number of proteins including TRADD, RIP, TRAF2, MADD and FADD [46]. Formation of this complex at the membrane allows TNFα to mediate an array of different signalling events, such as induction of apoptosis through the FADD-caspase arm or activation of MAP kinase and NFκB signalling via TRAF2. For example, TRAF2 contains a conserved C-terminal region termed the TRAF domain, which interacts with TRADD and an N-terminal ring finge ...

The subject of assay [5] is Gq/11. Kind of assay: Reversal by Gq/11 inhibitor of PAR2 mediated inhibition of TNFα-stimulated JNK activity, PAR2 NCTC2544 cells. The note with it: increasing concentrations YM254890 30 min, SLIGKV-OH 100 μM 30 min, TNFα 10 ng/ml 30 min. It is filed as cell-based, human. As for the experimental part: as §1
To measure JNK activity, cells were stimulated as appropriate and the reaction terminated by rapid aspiration and the addition of ice-cold PBS. […] Phosphorylation of GST-c-Jun was then determined by autoradiography. […]
(§3) Fig. 6 Gq/11 is essential for PAR2 mediated inhibition of JNK activation by TNFα. […] Samples were assessed for phospho-JNK levels (Panels A and D) or JNK activity (Panel B) as outlined in the Methods section. Gels from JNK activity assays were quantified by densitometry (Panel C). […]

The test system of assay [6] is Gq/11. As to the kind of experiment: Reversal by Gq/11 inhibitor of PAR2 mediated inhibition of TNFα-stimulated JNK phosphorylation, PAR2 NCTC2544 cells. The class given is cell-based, human. The note with it: 100 nM YM254890 30 min, SLIGKV-OH 100 μM 30 min, TNFα 10 ng/ml 30 min. As for the experimental part: as §1
Proteins were separated by 10% SDS–PAGE and transferred onto nitrocellulose. The membranes were blocked for non-specific binding for 2 h in 2% BSA (w/v) diluted in NATT buffer (50 mM Tris–HCl, 150 mM NaCl, 0.2% (v/v) Tween-20). The blots were then incubated overnight with 50 ng/ml primary antibody diluted in 0.2% BSA (w/v) in NATT buffer. […]
as §3

A further assay has as its system TNFR1/TRADD. As to the kind of experiment: TNFR1/TRADD complex formation (TNFR1 immuno-precipitation, TRADD immuno-blot), PAR2 expressing cells. The conditions noted are these: 100 nM YM254890 or 3 μM GF109203X 30 min, peptide 100 μM 30 min, TNFα 10 ng/ml 30 min. The class given is cell-based, human. How it is done: as §1
Proteins were separated by 10% SDS–PAGE and transferred onto nitrocellulose. The membranes were blocked for non-specific binding for 2 h in 2% BSA (w/v) diluted in NATT buffer (50 mM Tris–HCl, 150 mM NaCl, 0.2% (v/v) Tween-20). The blots were then incubated overnight with 50 ng/ml primary antibody diluted in 0.2% BSA (w/v) in NATT buffer. The blots were washed with NATT buffer for 90 min and incubated with HRP-conjugated secondary antibody (20 ng/ml in 0.2% BSA (w/v) diluted in NATT buffer) for 2 h. After a further 90 min wash, the blots were subjected to ECL reagent and exposed to Kodak X-ray film.
For immuno-precipitation of TNFR1, equal amounts of pre-cleared cell lysates were incubated in Tris–HCl buffer, pH 7.4, containing 50 mM NaCl, 1 mM EDTA, 1 mM EGTA, 1% (w/v) Triton X-100, and 0.5% (w/v) Nonidet P-40, with 2 μg TNFR1 antibody, pre-coupled to protein G, for 3 h. Lysates were recovered by sequential washes in solubilisation buffer and in the same buffer lacking detergents. Precipitates were assessed for TRADD or RIP content using Western blotting.
Fig. 7 PAR2 mediated TNFR1 adapter protein disruption in PAR2 expressing cells. In Panel A, cells were pre-treated with peptide (100 μM) or vehicle prior to stimulation with TNFα (10 ng/ml) for 30 min. Lysates were immuno-precipitated for TNFR1 and immuno-blotted for TRADD and/or RIP, as outlined in the Methods section. In Panel B cells were pre-treated with 100 nM YM254890 or 3 μM GF109203X for 30 min prior to pre-treatment with peptide (100 μM), for 30 min, then incubated for a further 30 min with TNFα (10 ng/ml). TNFR1 immuno-precipitates were immuno-blotted for TRADD. Each gel is representative of at least three experiments.

Assay [7] has as its system Gq/11. The note with it: ref [29]; cited from earlier work. The text has this: Thus, DAG derived from Gq/11 activation is likely to drive PKC activation and subsequent inhibition of TNFα stimulated JNK activity. Previously, we have shown that Gq/11 plays a positive role in the regulation of PAR2 mediated NFκB p ...

On to `NCCCC[C@H](NC(=O)CNC(=O)Nc1ccc2c(c1)c(CN1CCCC1)cn2Cc1c(Cl)cccc1Cl)C(=O)N[C@@H](Cc1ccccc1)C(=O)NC(c1ccccc1)c1ccccc1` [K-14585], for which, at human PAR2 [1], the “JNK activation by K14585 alone” value is “able to activate both JNK”. In addition, the results for the “reversal of SLIGKV-OH-mediated JNK inhibition (words)” value on human PAR2 [2], on human PAR2 [2] (listed as K14585) and at human PAR2 [2] (listed as K14858) were “able to reverse the inhibition of JNK; also recorded: able to reverse PAR2 mediated inhibition of TNFα signalling”, “inhibition was reversed by pre-incubation” and “reversed”, respectively. The “p38 MAP kinase activation by K14585 alone” value in the assay with p38 MAP kinase was “able to activate both JNK (not shown) and p38 MAP kinase”.
As for `CCCCCCCCCCCCCC(=O)O[C@@H]1[C@@H](C)[C@@]2(O)[C@@H](C=C(CO)C[C@]3(O)C(=O)C(C)=C[C@@H]23)[C@@H]2C(C)(C)[C@]12OC(C)=O` [PMA], the “effect of PKC activator on TNFα-stimulated JNK activity” value in the assay with PKC [3] was “mimicked the inhibitory effect of SLIGKV-OH; also recorded: mimic the inhibitory effect of PAR2 activation; also recorded: abolishing both JNK activity and phosphorylation”. Further, the “effect of PKC activator on TNFα-stimulated JNK phosphorylation” value in the assay on PKC [4] is “abolishing both JNK activity and phosphorylation”. Moreover, the “disruption of TNFR1 binding” value with TNFR1 was “disrupt TNFR1 binding”.
As to YM254890, the figures for the “reversal of PAR2 mediated inhibition of JNK activity by Gq/11 inhibitor” value with Gq/11 [5] and in the assay with Gq/11 [5] (listed as YM25480) were “almost complete abrogation of peptide mediated inhibition; also recorded: complete reversal of PAR2 mediated JNK inhibition” and “reversed PAR2 mediated inhibition”, respectively. Also, the “reversal of PAR2 mediated inhibition of JNK phosphorylation by Gq/11 inhibitor” value in the assay on Gq/11 [6] is recorded as “almost complete abrogation of peptide mediated inhibition of TNFα stimulated JNK phosphorylation”. For the same compound, the “reversal of PAR2 mediated disruption of TNFR1/TRADD complex” value is “effectively reversed PAR2 mediated disruption” in the assay on TNFR1/TRADD and “reversed” in the assay with TNFR1/TRADD (listed as YM25480). For the same compound, in the assay with Gq/11 [7], the “inhibition of trypsin and peptide mediated [^3H]IP accumulation” value is listed as “very effective inhibitor”.
